The source of these data is ChEMBL document CHEMBL1201862, “PubChem BioAssay data set” (2004).

Each structure is given as a SMILES string.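 48-hour exposure; five concentrations; linearly interpolated endpoints. GI50 is the concentration that inhibits growth by half.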 Calls of active or inactive are those of the source. Rule as the data show it: active = GI50 up to about 1.1 µM and inactive = higher.

Among the test systems are HCC 2998; MDA-N; LOX IMVI; A549; NCI-H23; EKVX; HT-29; RXF 393; SK-MEL-5; DU-145; PC-3; A498; BT-549; OVCAR-8; HOP-92; T47D; UACC-257; SW-620; SNB-19.
Common to all, as to assay: NCI-60 cell line screen, 48 h

For the compound `c1cc(CSSCc2ccncc2)ccn1`, the GI50 was 22.9 µM (inactive) in the experiment with HCC 2998; 12.9 µM (inactive) in the experiment on MDA-N; 10.6 µM (inactive) in the experiment with LOX IMVI; 27.3 µM (inactive) with A549; 22 µM (inactive) with NCI-H23; 54.8 µM (inactive) with EKVX. In addition, the GI50 was 24.2 µM (inactive) in the experiment on HT-29; 23.6 µM (inactive) in the experiment with RXF 393; 17.7 µM (inactive) with SK-MEL-5; 28.9 µM (inactive) with DU-145; 21.7 µM (inactive) in the experiment on PC-3; 42.7 µM (inactive) in the experiment on A498. Besides, the GI50 with BT-549 is 51.6 µM (inactive); in the experiment on OVCAR-8, 21.7 µM (inactive); with HOP-92 it was 25.9 µM (inactive); with T47D, > 67.9 µM (inactive); with UACC-257, 15.9 µM (inactive); in the experiment on SW-620, 6.27 µM (inactive). For the same compound, the GI50 with SNB-19 was 34 µM (inactive).
Consider `Clc1ccc(-c2nn3c(COc4cccc(OCc5nnc6sc(-c7ccc(Cl)cc7)nn56)c4)nnc3s2)cc1`, for which the GI50 was 32.1 µM (inactive) in the experiment with HCC 2998; 15.7 µM (inactive) in the experiment on MDA-N; 26.3 µM (inactive) in the experiment with LOX IMVI; 25.8 µM (inactive) in the experiment with A549; 22.3 µM (inactive) with NCI-H23; 21.3 µM (inactive) in the experiment with EKVX. The GI50 in the experiment on HT-29 is 24.5 µM (inactive); in the experiment with RXF 393 it was 16.1 µM (inactive); in the experiment on SK-MEL-5 it was 15.2 µM (inactive); in the experiment with DU-145, 25.4 µM (inactive); in the experiment with PC-3, 33.1 µM (inactive); with A498 it was 15.7 µM (inactive). Further, the GI50 in the experiment with BT-549 is 30.7 µM (inactive); in the experiment with OVCAR-8, 28.9 µM (inactive); with HOP-92, 30.1 µM (inactive); in the experiment on T47D, 17.3 µM (inactive); in the experiment with UACC-257, 26.1 µM (inactive); in the experiment with SW-620, 25.9 µM (inactive). The GI50 with SNB-19 was 24.6 µM (inactive).
Turning to `CC1(c2cccc(C(F)(F)F)c2)CC(c2cccc(C(F)(F)F)c2)=C(C#N)C(=C(C#N)C#N)N1` (stereo unspecified), the GI50 is 17.2 µM (inactive) with HCC 2998; 18 µM (inactive) with MDA-N; 17.7 µM (inactive) in the experiment with LOX IMVI; 19.5 µM (inactive) in the experiment with A549; 19.3 µM (inactive) in the experiment with NCI-H23; 17.9 µM (inactive) in the experiment with EKVX. In addition, the GI50 with HT-29 is 18.8 µM (inactive); in the experiment on RXF 393, 16.8 µM (inactive); in the experiment with SK-MEL-5, 15.2 µM (inactive); in the experiment on DU-145, 17.2 µM (inactive); with PC-3, 19.4 µM (inactive); in the experiment with A498 it was 18.1 µM (inactive). In addition, the GI50 in the experiment with BT-549 was 18.7 µM (inactive); in the experiment with OVCAR-8, 17.5 µM (inactive); with HOP-92, 2.3 µM (inactive); with T47D, 17 µM (inactive); in the experiment on UACC-257, 15.9 µM (inactive); in the experiment with SW-620, 15 µM (inactive). Besides, the GI50 with SNB-19 was 19.4 µM (inactive).
Take `C=C1CCC(CC[C@@H]2CC[C@]3(OC2)O[C@@]2(O)CC[C@]3(C)OC2(C)C)C(C)(C)[C@H]1C/C=C1/C(=O)OC[C@@H]1O` (stereo partly specified): the GI50 was 4.16 µM (inactive) in the experiment on HCC 2998; 1.49 µM (inactive) in the experiment with MDA-N; 0.24 µM (active) in the experiment with LOX IMVI; 3.55 µM (inactive) with A549; 0.445 µM (active) with NCI-H23; 2.96 µM (inactive) in the experiment on EKVX. For the same compound, the GI50 is 1.63 µM (inactive) with HT-29; 2.19 µM (inactive) in the experiment with RXF 393; 0.0986 µM (active) in the experiment with SK-MEL-5; 4.83 µM (inactive) in the experiment with DU-145; 2.17 µM (inactive) in the experiment with PC-3; 5.93 µM (inactive) in the experiment on A498. Further, the GI50 in the experiment with BT-549 is 1.9 µM (inactive); in the experiment with OVCAR-8, 1.22 µM (inactive); in the experiment with HOP-92 it was 2.02 µM (inactive); in the experiment on T47D, 0.413 µM (active); in the experiment with UACC-257 it was 0.363 µM (active); with SW-620, 3.33 µM (inactive). In addition, the GI50 with SNB-19 was 2.89 µM (inactive).
